From PubChem BioAssay (NCI)
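1) Cells in 96-well plates. 2) Compound, 48 h, 5 concentrations. 3) Linear interpolation between surrounding doses. 4) Unreached endpoint = highest concentration. TGI marks complete inhibition of growth.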

Columns and labels:
Experiment in all cases: inhibition of tumour cell growth, NCI panel, 48 h
[1] = test system: 786-0 renal
[2] = test system: A549 NSCLC
[3] = test system: ACHN renal
[4] = test system: CAKI-1 renal
[5] = test system: CCRF-CEM leukemia
[6] = test system: DLD-1 colon
[7] = test system: EKVX NSCLC
[8] = test system: HCC-2998 colon
[9] = test system: HCT-116 colon
[10] = test system: HL-60(TB) leukemia
[11] = test system: HOP-18 NSCLC
[12] = test system: HOP-62 NSCLC
[13] = test system: HT29 colon
[14] = test system: IGROV1 ovarian
[15] = test system: K-562 leukemia
[16] = test system: KM12 colon
[17] = test system: KM20L2 colon
[18] = test system: LOX IMVI melanoma
[19] = test system: LXFL 529 NSCLC
[20] = test system: M14 melanoma
[21] = test system: MALME-3M melanoma
[22] = test system: MOLT-4 leukemia
[23] = test system: NCI-H226 lung
[24] = test system: NCI-H23 lung
[25] = test system: NCI-H460 lung
[26] = test system: NCI-H522 lung
[27] = test system: OVCAR-3 ovarian
[28] = test system: OVCAR-4 ovarian
[29] = test system: OVCAR-5 ovarian
[30] = test system: OVCAR-8 ovarian
[31] = test system: RPMI-8226 leukemia
[32] = test system: RXF 393 renal
[33] = test system: SF-268 CNS
[34] = test system: SF-295 CNS
[35] = test system: SF-539 CNS
[36] = test system: SK-MEL-2 melanoma
[37] = test system: SK-MEL-28 melanoma
[38] = test system: SK-OV-3 ovarian
[39] = test system: SN12C renal
[40] = test system: SNB-19 CNS
[41] = test system: SNB-75 CNS
[42] = test system: SNB-78 CNS
[43] = test system: SW-620 colon
[44] = test system: TK-10 renal
[45] = test system: U251 CNS
[46] = test system: UACC-257 melanoma
[47] = test system: UACC-62 melanoma
[48] = test system: UO-31 renal
[49] = test system: XF 498 CNS
[50] = test system: A498 renal
[51] = test system: COLO 205 colon
[52] = test system: DMS 273 small cell lung
[53] = test system: HCT-15 colon
[54] = test system: HOP-92 NSCLC
[55] = test system: M19-MEL melanoma
[56] = test system: SK-MEL-5 melanoma
[57] = test system: DMS 114 small cell lung
[58] = test system: SR leukemia

Measured: TGI

COC(=O)/C(C#N)=C1\CCC(Nc2cccc(C(F)(F)F)c2)N1C (stereo not given)
not listed: [50] | [51] | [52] | [53] | [54] | [55] | [56] | [57] | [58]
> 100 µM: all other assays above

C[C@H](NS(=O)(=O)c1ccc(NC(=O)c2ccccc2)cc1)C(=O)O
not listed: [9] | [12] | [23] | [42] | [57] | [58]
> 100 µM: all other assays above

Cc1ccc(NC(=O)CSc2nnc(Cc3ccccc3)o2)c(C)c1
not listed: [4] | [6] | [8] | [14] | [27] | [29] | [35] | [50] | [54]
> 100 µM: all other assays above
